According to PubChem BioAssay (NCI):
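Test compounds were applied to cells in 96-well plates for 48 hours at 5 doses. The concentration for full growth arrest is given as TGI.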

What was measured:
Assay in all cases: inhibition of tumour cell growth, NCI panel, 48 h
OVCAR-5 ovarian = test system: OVCAR-5 ovarian
M14 melanoma = test system: M14 melanoma
IGROV1 ovarian = test system: IGROV1 ovarian
MDA-MB-435 = test system: MDA-MB-435
HL-60(TB) leukemia = test system: HL-60(TB) leukemia
NCI/ADR-RES ovarian = test system: NCI/ADR-RES ovarian
PC-3 prostate = test system: PC-3 prostate
DU-145 prostate = test system: DU-145 prostate
CAKI-1 renal = test system: CAKI-1 renal
MDA-N = test system: MDA-N
UACC-257 melanoma = test system: UACC-257 melanoma
CCRF-CEM leukemia = test system: CCRF-CEM leukemia
OVCAR-8 ovarian = test system: OVCAR-8 ovarian
786-0 renal = test system: 786-0 renal
HT29 colon = test system: HT29 colon
EKVX NSCLC = test system: EKVX NSCLC
A498 renal = test system: A498 renal
SF-295 CNS = test system: SF-295 CNS
HCT-116 colon = test system: HCT-116 colon
MCF7 breast = test system: MCF7 breast
SW-620 colon = test system: SW-620 colon
HCT-15 colon = test system: HCT-15 colon
HCC-2998 colon = test system: HCC-2998 colon
SK-MEL-2 melanoma = test system: SK-MEL-2 melanoma
BT-549 breast = test system: BT-549 breast
OVCAR-3 ovarian = test system: OVCAR-3 ovarian
OVCAR-4 ovarian = test system: OVCAR-4 ovarian
SK-OV-3 ovarian = test system: SK-OV-3 ovarian
ACHN renal = test system: ACHN renal
U251 CNS = test system: U251 CNS
NCI-H460 lung = test system: NCI-H460 lung
SNB-19 CNS = test system: SNB-19 CNS
MALME-3M melanoma = test system: MALME-3M melanoma
T-47D breast = test system: T-47D breast
A549 NSCLC = test system: A549 NSCLC
SN12C renal = test system: SN12C renal
MDA-MB-231 breast = test system: MDA-MB-231 breast
TK-10 renal = test system: TK-10 renal
KM12 colon = test system: KM12 colon
UO-31 renal = test system: UO-31 renal
HS 578T breast = test system: HS 578T breast
SF-268 CNS = test system: SF-268 CNS
HOP-92 NSCLC = test system: HOP-92 NSCLC
SNB-75 CNS = test system: SNB-75 CNS
HOP-62 NSCLC = test system: HOP-62 NSCLC
NCI-H23 lung = test system: NCI-H23 lung
RXF 393 renal = test system: RXF 393 renal
LOX IMVI melanoma = test system: LOX IMVI melanoma
UACC-62 melanoma = test system: UACC-62 melanoma
NCI-H522 lung = test system: NCI-H522 lung
SK-MEL-5 melanoma = test system: SK-MEL-5 melanoma
NCI-H226 lung = test system: NCI-H226 lung
K-562 leukemia = test system: K-562 leukemia
SK-MEL-28 melanoma = test system: SK-MEL-28 melanoma
SF-539 CNS = test system: SF-539 CNS
RPMI-8226 leukemia = test system: RPMI-8226 leukemia
MOLT-4 leukemia = test system: MOLT-4 leukemia
COLO 205 colon = test system: COLO 205 colon

**Q.** What does the source list for CN1C(=O)CN=C(c2ccccc2F)c2cc(N=C=S)ccc21?
**A.** TGI (OVCAR-5 ovarian): > 100 µM; TGI (M14 melanoma): > 100 µM; TGI (IGROV1 ovarian): > 100 µM; TGI (MDA-MB-435): > 100 µM; TGI (HL-60(TB) leukemia): > 100 µM; TGI (NCI/ADR-RES ovarian): > 100 µM; TGI (PC-3 prostate): > 100 µM; TGI (DU-145 prostate): > 100 µM; TGI (CAKI-1 renal): 25.2 µM; TGI (MDA-N): > 100 µM; TGI (UACC-257 melanoma): > 100 µM; TGI (CCRF-CEM leukemia): > 100 µM; TGI (OVCAR-8 ovarian): > 100 µM; TGI (786-0 renal): > 100 µM; TGI (HT29 colon): > 100 µM; TGI (EKVX NSCLC): > 100 µM; TGI (A498 renal): > 100 µM; TGI (SF-295 CNS): > 100 µM; TGI (HCT-116 colon): > 100 µM; TGI (MCF7 breast): > 100 µM; TGI (SW-620 colon): > 100 µM; TGI (HCT-15 colon): > 100 µM; TGI (HCC-2998 colon): > 100 µM; TGI (SK-MEL-2 melanoma): > 100 µM; TGI (BT-549 breast): > 100 µM; TGI (OVCAR-3 ovarian): > 100 µM; TGI (OVCAR-4 ovarian): > 100 µM; TGI (SK-OV-3 ovarian): > 100 µM; TGI (ACHN renal): > 100 µM; TGI (U251 CNS): > 100 µM; TGI (NCI-H460 lung): > 100 µM; TGI (SNB-19 CNS): > 100 µM; TGI (MALME-3M melanoma): > 100 µM; TGI (T-47D breast): > 100 µM; TGI (A549 NSCLC): > 100 µM; TGI (SN12C renal): > 100 µM; TGI (MDA-MB-231 breast): > 100 µM; TGI (TK-10 renal): > 100 µM; TGI (KM12 colon): > 100 µM; TGI (UO-31 renal): > 100 µM; TGI (HS 578T breast): > 100 µM; TGI (SF-268 CNS): > 100 µM; TGI (HOP-92 NSCLC): > 100 µM; TGI (SNB-75 CNS): > 100 µM; TGI (HOP-62 NSCLC): > 100 µM; TGI (NCI-H23 lung): > 100 µM; TGI (RXF 393 renal): 87.7 µM; TGI (LOX IMVI melanoma): > 100 µM; TGI (UACC-62 melanoma): > 100 µM; TGI (NCI-H522 lung): 45.2 µM

**Q.** How did the TGI (OVCAR-5 ovarian) turn out when C[C@]12CC[C@H]3[C@@H](CC=C4C[C@@H](O)CC[C@@]43C)[C@@H]1C[C@H](N1CCOCC1)[C@@H]2O was run?
**A.** The TGI was over 100 µM.

**Q.** What about the TGI (M14 melanoma) of the same molecule?
**A.** Its TGI is over 100 µM.

**Q.** What about the TGI (SK-MEL-5 melanoma) of the same molecule?
**A.** Its TGI is over 100 µM.

**Q.** What about the TGI (IGROV1 ovarian) of the same molecule?
**A.** The TGI was over 100 µM.

**Q.** What about the TGI (MDA-MB-435) of the same molecule?
**A.** Its TGI is over 100 µM.

**Q.** What about the TGI (HL-60(TB) leukemia) of the same molecule?
**A.** Its TGI is over 100 µM.

**Q.** And the TGI (NCI/ADR-RES ovarian)?
**A.** The TGI was over 100 µM.

**Q.** And the TGI (PC-3 prostate)?
**A.** The TGI was over 100 µM.

**Q.** What about the TGI (DU-145 prostate) of the same molecule?
**A.** Its TGI is over 100 µM.

**Q.** And the TGI (NCI-H226 lung)?
**A.** Its TGI is over 100 µM.

**Q.** And the TGI (CAKI-1 renal)?
**A.** The TGI was over 100 µM.

**Q.** What about the TGI (MDA-N) of the same molecule?
**A.** Its TGI is over 100 µM.

**Q.** And the TGI (K-562 leukemia)?
**A.** The TGI was over 100 µM.

**Q.** And the TGI (UACC-257 melanoma)?
**A.** Its TGI is over 100 µM.

**Q.** And the TGI (CCRF-CEM leukemia)?
**A.** The TGI was over 100 µM.

**Q.** What about the TGI (OVCAR-8 ovarian) of the same molecule?
**A.** Its TGI is over 100 µM.

**Q.** What about the TGI (SK-MEL-28 melanoma) of the same molecule?
**A.** The TGI was over 100 µM.

**Q.** What about the TGI (SF-539 CNS) of the same molecule?
**A.** Its TGI is over 100 µM.

**Q.** What about the TGI (786-0 renal) of the same molecule?
**A.** The TGI was over 100 µM.

**Q.** And the TGI (HT29 colon)?
**A.** The TGI was over 100 µM.

**Q.** What about the TGI (EKVX NSCLC) of the same molecule?
**A.** The TGI was over 100 µM.

**Q.** What about the TGI (A498 renal) of the same molecule?
**A.** The TGI was over 100 µM.

**Q.** And the TGI (SF-295 CNS)?
**A.** The TGI was over 100 µM.

**Q.** And the TGI (RPMI-8226 leukemia)?
**A.** The TGI was over 100 µM.

**Q.** What about the TGI (HCT-116 colon) of the same molecule?
**A.** Its TGI is over 100 µM.

**Q.** What about the TGI (MOLT-4 leukemia) of the same molecule?
**A.** Its TGI is over 100 µM.

**Q.** What about the TGI (MCF7 breast) of the same molecule?
**A.** Its TGI is over 100 µM.

**Q.** What about the TGI (SW-620 colon) of the same molecule?
**A.** The TGI was over 100 µM.

**Q.** What about the TGI (HCT-15 colon) of the same molecule?
**A.** Its TGI is over 100 µM.

**Q.** What about the TGI (HCC-2998 colon) of the same molecule?
**A.** Its TGI is over 100 µM.

**Q.** What about the TGI (SK-MEL-2 melanoma) of the same molecule?
**A.** Its TGI is over 100 µM.

**Q.** What about the TGI (BT-549 breast) of the same molecule?
**A.** The TGI was over 100 µM.

**Q.** And the TGI (OVCAR-3 ovarian)?
**A.** Its TGI is over 100 µM.

**Q.** And the TGI (COLO 205 colon)?
**A.** The TGI was over 100 µM.

**Q.** What about the TGI (OVCAR-4 ovarian) of the same molecule?
**A.** Its TGI is over 100 µM.

**Q.** And the TGI (SK-OV-3 ovarian)?
**A.** Its TGI is over 100 µM.

**Q.** And the TGI (ACHN renal)?
**A.** Its TGI is over 100 µM.

**Q.** What about the TGI (U251 CNS) of the same molecule?
**A.** The TGI was over 100 µM.

**Q.** What about the TGI (NCI-H460 lung) of the same molecule?
**A.** The TGI was over 100 µM.

**Q.** What about the TGI (SNB-19 CNS) of the same molecule?
**A.** The TGI was over 100 µM.

**Q.** And the TGI (MALME-3M melanoma)?
**A.** The TGI was over 100 µM.

**Q.** What about the TGI (T-47D breast) of the same molecule?
**A.** Its TGI is over 100 µM.

**Q.** What about the TGI (A549 NSCLC) of the same molecule?
**A.** The TGI was over 100 µM.

**Q.** And the TGI (SN12C renal)?
**A.** Its TGI is over 100 µM.

**Q.** What about the TGI (MDA-MB-231 breast) of the same molecule?
**A.** The TGI was over 100 µM.

**Q.** What about the TGI (TK-10 renal) of the same molecule?
**A.** Its TGI is over 100 µM.

**Q.** What about the TGI (KM12 colon) of the same molecule?
**A.** The TGI was over 100 µM.

**Q.** And the TGI (UO-31 renal)?
**A.** The TGI was over 100 µM.

**Q.** And the TGI (HS 578T breast)?
**A.** The TGI was over 100 µM.

**Q.** What about the TGI (SF-268 CNS) of the same molecule?
**A.** Its TGI is over 100 µM.

**Q.** And the TGI (HOP-92 NSCLC)?
**A.** Its TGI is over 100 µM.

**Q.** What about the TGI (SNB-75 CNS) of the same molecule?
**A.** The TGI was 97.4 µM.

**Q.** What about the TGI (HOP-62 NSCLC) of the same molecule?
**A.** Its TGI is over 100 µM.

**Q.** And the TGI (NCI-H23 lung)?
**A.** Its TGI is over 100 µM.

**Q.** What about the TGI (RXF 393 renal) of the same molecule?
**A.** The TGI was over 100 µM.

**Q.** And the TGI (LOX IMVI melanoma)?
**A.** The TGI was over 100 µM.

**Q.** And the TGI (UACC-62 melanoma)?
**A.** Its TGI is over 100 µM.

**Q.** What about the TGI (NCI-H522 lung) of the same molecule?
**A.** The TGI was over 100 µM.
